Laboratory results taken from the supplement of paper PMC13380429.

Columns and labels:
Conditions in all cases: 72 h
Calu-3 [1] = assay: cell viability relative to DMSO; higher = less toxic
Vero E6 [2] = assay: as above
U2OS [3] = assay: as above
Caco-2 [4] = assay: as above
HepG2 [5] = assay: as above
Calu-3 [6] = assay: drug sensitivity score (DSS) for viability; higher = more toxic; extreme values may be limits of the assay
Vero E6 [7] = assay: as above
U2OS [8] = assay: as above
Caco-2 [9] = assay: as above
HepG2 [10] = assay: as above
Calu-3 [11] = assay: relative viability EC50 (midpoint between 100% and the lowest measured viability); higher = less toxic
Vero E6 [12] = assay: as above
U2OS [13] = assay: as above
Caco-2 [14] = assay: as above
HepG2 [15] = assay: as above

Row | SMILES | cell viability (Calu-3 [1]; 1 nM) [%] | cell viability (Calu-3 [1]; 10 nM) [%] | cell viability (Calu-3 [1]; 100 nM) [%] | cell viability (Calu-3 [1]; 1000 nM) [%] | cell viability (Calu-3 [1]; 10000 nM) [%] | cell viability (Vero E6 [2]; 1 nM) [%] | cell viability (Vero E6 [2]; 10 nM) [%] | cell viability (Vero E6 [2]; 100 nM) [%] | cell viability (Vero E6 [2]; 1000 nM) [%] | cell viability (Vero E6 [2]; 10000 nM) [%] | cell viability (U2OS [3]; 1 nM) [%] | cell viability (U2OS [3]; 10 nM) [%] | cell viability (U2OS [3]; 100 nM) [%] | cell viability (U2OS [3]; 1000 nM) [%] | cell viability (U2OS [3]; 10000 nM) [%] | cell viability (Caco-2 [4]; 1 nM) [%] | cell viability (Caco-2 [4]; 10 nM) [%] | cell viability (Caco-2 [4]; 100 nM) [%] | cell viability (Caco-2 [4]; 1000 nM) [%] | cell viability (Caco-2 [4]; 10000 nM) [%] | cell viability (HepG2 [5]; 1 nM) [%] | cell viability (HepG2 [5]; 10 nM) [%] | cell viability (HepG2 [5]; 100 nM) [%] | cell viability (HepG2 [5]; 1000 nM) [%] | cell viability (HepG2 [5]; 10000 nM) [%] | drug sensitivity score (Calu-3 [6]) | drug sensitivity score (Vero E6 [7]) | drug sensitivity score (U2OS [8]) | drug sensitivity score (Caco-2 [9]) | drug sensitivity score (HepG2 [10]) | relative viability EC50 (Calu-3 [11]) [µM] | relative viability EC50 (Vero E6 [12]) [µM] | relative viability EC50 (U2OS [13]) [µM] | relative viability EC50 (Caco-2 [14]) [µM] | relative viability EC50 (HepG2 [15]) [µM]
1 | CCOc1c2c(c(OCC)c3ccccc13)C(=O)N(c1ccc(CC(=O)NS(=O)(=O)c3ccccc3)cc1)C2 | 94 | 98.6 | 102 | 98.1 | 98.2 | 96 | 95.1 | 97.9 | 89.1 | 101 | 99.4 | 100 | 96.4 | 98.9 | 97.2 | 96.3 | 94.8 | 97.7 | 90.3 | 89.8 | 97.6 | 87 | 104 | 93.1 | 104 | 0 | 0 | 0 | 0 | 0 | > 10 | > 10 | > 10 | > 10 | > 10
2 | CC1(C)CC(=O)c2c(C(F)(F)F)nn(-c3ccc(C(N)=O)c(N[C@H]4CC[C@H](OC(=O)CN)CC4)c3)c2C1 [SNX-5422] | 85.3 | 93.9 | 80.9 | 40.5 | 38.7 | 95.6 | 94 | 97.5 | 47.3 | 25.8 | 92 | 105 | 68.9 | 3.4 | 3.4 | 90.2 | 95.8 | 85.4 | 37.3 | 35.2 | 101 | 92.9 | 15.8 | 0.9 | 1.9 | 13.1 | 10.6 | 21.9 | 13.5 | 28.8 | 0.161 | 0.612 | 0.135 | 0.189 | 0.0395
3 | CCCC(=O)N1CCCN(c2nc(N)c3cc(OC)c(OC)cc3n2)CC1 [bunazosin] | 102 | 101 | 105 | 92 | 115 | 104 | 105 | 102 | 99.3 | 97.3 | 95.4 | 103 | 101 | 96.7 | 98.2 | 108 | 96.4 | 101 | 101 | 99.7 | 94.7 | 99.3 | 103 | 94.3 | 99.3 | 0 | 0 | 0 | 0 | 0 | > 10 | > 10 | > 10 | > 10 | > 10
4 | O=C(O)CCc1ccc(NCc2cccc3c2CCCN3CCOc2ccccc2)cc1F | 93.2 | 97.4 | 91.6 | 94.8 | 99.6 | 97.5 | 98.2 | 97.4 | 98.6 | 96 | 101 | 96.5 | 99 | 97.4 | 104 | 106 | 96.2 | 101 | 106 | 96.4 | 97.9 | 101 | 100 | 100 | 95 | 0 | 0 | 0 | 0 | 0 | > 10 | > 10 | > 10 | > 10 | > 10
5 | CN(C)CCCN1c2ccccc2Sc2ccccc21 [promazine] | 93.7 | 102 | 95.2 | 95.6 | 101 | 102 | 100 | 95.1 | 97.2 | 96 | 98.7 | 102 | 96.4 | 96.3 | 99.5 | 95.5 | 98.3 | 93.6 | 96.1 | 102 | 102 | 89.6 | 102 | 93.5 | 87.6 | 0 | 0 | 0 | 0 | 0.1 | > 10 | > 10 | > 10 | > 10 | > 10
6 | CCCCCCCCCCCCC[N+](C)(C)Cc1ccccc1 [benzalkonium] | 104 | 98.9 | 97 | 98.8 | 37.3 | 89 | 101 | 96.1 | 105 | 92.4 | 97.7 | 91.8 | 102 | 92.9 | 13.7 | 102 | 102 | 110 | 108 | 19.5 | 96.1 | 108 | 102 | 116 | 22.9 | 3.6 | 0 | 5.9 | 3.9 | 3.4 | 3.02 | > 10 | 2.49 | 3.62 | 3.95
7 | CCCN(CCC)C(=O)Cc1c(-c2ccc(Cl)cc2)nc2ccc(Cl)cn12 [alpidem] | 95.7 | 96.4 | 96.2 | 98.9 | 107 | 102 | 99.6 | 104 | 97.4 | 112 | 92.6 | 97.4 | 95.9 | 104 | 112 | 91.5 | 103 | 102 | 104 | 100 | 92.5 | 94.6 | 96.6 | 102 | 95.1 | 0 | 0 | 0 | 0 | 0 | > 10 | > 10 | > 10 | > 10 | > 10
8 | O=C1c2cccc(O)c2C(=O)c2c(O)cc(CO)cc21 [aloe-emodin] | 93.4 | 92.5 | 103 | 97.8 | 97.6 | 103 | 104 | 101 | 102 | 98.5 | 97 | 98 | 98.6 | 96.9 | 102 | 99.3 | 104 | 98.8 | 92.4 | 91.8 | 95 | 100 | 90.6 | 105 | 95.2 | 0 | 0 | 0 | 0 | 0 | > 10 | > 10 | > 10 | > 10 | > 10
9 | CC(C)(Sc1ccc(CCN(CCCCC2CCCCC2)C(=O)NC2CCCCC2)cc1)C(=O)O [GW-7647] | 97.9 | 110 | 100 | 94.6 | 100 | 97.3 | 100 | 91.1 | 97.7 | 110 | 101 | 101 | 105 | 96.2 | 98.2 | 87.7 | 101 | 98.3 | 104 | 103 | 87 | 95.3 | 99.1 | 87 | 101 | 0 | 0 | 0 | 0 | 0 | > 10 | > 10 | > 10 | > 10 | > 10
10 | OCCc1ccc(OCCn2ccnc2)cc1 [MR-948] | 96.4 | 99 | 97.6 | 105 | 104 | 90 | 98.6 | 94.8 | 95 | 107 | 99.4 | 99.9 | 98.6 | 96 | 96.8 | 94.9 | 93.1 | 86.3 | 108 | 99.8 | 89.2 | 104 | 96.7 | 106 | 106 | 0 | 0 | 0 | 0 | 0 | > 10 | > 10 | > 10 | > 10 | > 10
11 | CC1(C)OC2(C)C(O)CC1CC2O (stereo not given) [epomediol] | 97.1 | 82.6 | 97.5 | 90.9 | 105 | 98.7 | 97 | 98 | 98.7 | 94 | 108 | 97.3 | 98.1 | 97.7 | 102 | 98.7 | 92.1 | 98.2 | 95 | 101 | 99.9 | 98.1 | 96.2 | 112 | 101 | 0 | 0 | 0 | 0 | 0 | > 10 | > 10 | > 10 | > 10 | > 10
12 | CC(C)C[C@H](NC(=O)N1CCCCCC1)C(=O)N[C@H](Cc1cn(C)c2ccccc12)C(=O)N[C@H](Cc1ccccn1)C(=O)O | 109 | 95.2 | 97.9 | 106 | 112 | 95 | 97 | 100 | 98.9 | 98.5 | 99.1 | 94.4 | 96.4 | 99 | 97.9 | 100 | 82.5 | 92.1 | 99.9 | 91.2 | 94.5 | 111 | 99 | 101 | 89.8 | 0 | 0 | 0 | 0 | 0 | > 10 | > 10 | > 10 | > 10 | > 10
13 | CC(C)C[C@H](NC(=O)[C@H](CCCCN)NC(=O)[C@H](CCCNC(=N)N)NC(=O)[C@H](C)NC(=O)[C@H](CO)NC(=O)[C@H](CCCCN)NC(=O)[C@H](CCCNC(=N)N)NC(=O)[C@H](C)NC(=O)CNC(=O)[C@@H](NC(=O)[C@H](Cc1ccccc1)NC(=O)CNC(=O)CNC(=O)[C@@H](N)Cc1ccccc1)[C@@H](C)O)C(=O)N[C@@H](C)C(=O)N[C@@H](CC(N)=O)C(=O)N[C@@H](CCC(N)=O)C(=O)O [orphanin-fq] | 104 | 107 | 101 | 112 | 96.8 | 92.2 | 99.7 | 95.3 | 97.1 | 98.6 | 98.1 | 93.3 | 97.7 | 97.5 | 96.1 | 90.9 | 93.6 | 104 | 106 | 96.5 | 94.3 | 97.4 | 94.5 | 98.7 | 106 | 0 | 0 | 0 | 0 | 0 | > 10 | > 10 | > 10 | > 10 | > 10
14 | Cc1cccc(C)c1-n1c(=O)c2cnc(Nc3ccc(N4CCN(C)CC4)cc3)nc2n2c3ccccc3nc12 [TC-S-7003] | 106 | 101 | 95.6 | 70.5 | 5.2 | 96.9 | 97.4 | 71.7 | 54.6 | 10.6 | 97 | 98.2 | 91.8 | 56.5 | 0.4 | 88.3 | 87.9 | 88.3 | 66.1 | 11.6 | 98 | 101 | 82 | 58.6 | 9 | 9.4 | 12.6 | 10.5 | 8.7 | 10.5 | 1.4 | 0.527 | 1.15 | 1.31 | 0.915
